Assay results reported in PubChem BioAssay (NCI).
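Five concentrations, 48 hours, 96-well plates. TGI: total growth inhibition.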 Where a SMILES comes first, the peptide text is derived from it. The star is where a group is joined. Cbz = O=C(OCc1ccccc1)*

Legend:
Test in all cases: NCI anticancer screen, dose series, 48 h
MALME-3M melanoma = tested on: MALME-3M melanoma
SF-295 CNS = tested on: SF-295 CNS
LOX IMVI melanoma = tested on: LOX IMVI melanoma
NCI-H226 lung = tested on: NCI-H226 lung
ACHN renal = tested on: ACHN renal
U251 CNS = tested on: U251 CNS
HCC-2998 colon = tested on: HCC-2998 colon
OVCAR-4 ovarian = tested on: OVCAR-4 ovarian
SK-MEL-2 melanoma = tested on: SK-MEL-2 melanoma
HCT-15 colon = tested on: HCT-15 colon
A498 renal = tested on: A498 renal
T-47D breast = tested on: T-47D breast
BT-549 breast = tested on: BT-549 breast

Structure (SMILES)	TGI (MALME-3M melanoma)	TGI (SF-295 CNS)	TGI (LOX IMVI melanoma)	TGI (NCI-H226 lung)	TGI (ACHN renal)	TGI (U251 CNS)	TGI (HCC-2998 colon)	TGI (OVCAR-4 ovarian)	TGI (SK-MEL-2 melanoma)	TGI (HCT-15 colon)	TGI (A498 renal)	TGI (T-47D breast)	TGI (BT-549 breast)
Nc1c(S(=O)(=O)c2ccccc2)c2nc3ccccc3nc2n2c1nc1ccccc12	> 80.9 µM	> 53.4 µM	> 100 µM	> 75.1 µM	> 100 µM	> 47.5 µM	> 100 µM	> 80.5 µM	> 100 µM	> 100 µM	> 100 µM	–	–
CCOC(=O)CCC(NC(=O)OCc1ccccc1)C(=O)NC(CCC(=O)OCC)C(=O)OCC (centres undefined) (Cbz-Glu(OEt)-Glu(OEt)-OEt; configuration not given here)	> 100 µM	> 100 µM	> 100 µM	> 100 µM	> 100 µM	> 100 µM	> 100 µM	> 100 µM	> 100 µM	> 100 µM	> 100 µM	> 100 µM	–
C/C=C\C(CC(=O)NCC(=O)c1c[nH]c2ccccc12)CC(=O)OC (centres undefined)	> 100 µM	> 100 µM	–	–	> 100 µM	> 100 µM	> 100 µM	> 100 µM	> 100 µM	> 100 µM	> 100 µM	> 100 µM	> 100 µM
CCOC(=O)CCC1(CCC(=O)OCC)CCCCCCCCC(CCC(=O)OCC)(CCC(=O)OCC)C(=O)C1=O	> 100 µM	> 100 µM	> 100 µM	> 100 µM	> 100 µM	> 100 µM	> 100 µM	> 100 µM	> 100 µM	> 100 µM	> 100 µM	> 100 µM	–
CCOC(=O)C(NC(=O)c1ccccc1)(N1CCN(c2cc3c(cc2F)c(=O)c(C(=O)O)cn3C2CC2)CC1)C(F)(F)F (centres undefined)	39.3 µM	87.9 µM	–	45.2 µM	58.9 µM	> 100 µM	38.6 µM	63.4 µM	38.9 µM	–	72 µM	46.1 µM	50.9 µM
CC(=O)Nc1c(C(=N)C#N)ncn1CCO	> 100 µM	> 100 µM	> 100 µM	> 100 µM	> 100 µM	> 100 µM	> 100 µM	> 100 µM	> 100 µM	> 100 µM	> 100 µM	> 100 µM	–
C=C1CC[C@H]2C(=O)OC(c3ccoc3)C[C@]2(C)C/C=C\C=C/1C(=O)OC (some centres undefined)	> 25 µM	> 25 µM	> 25 µM	> 25 µM	> 25 µM	> 25 µM	> 25 µM	> 25 µM	> 25 µM	> 25 µM	> 25 µM	–	> 25 µM
O=P1(Cc2ccccc2)N(Cc2ccccc2)[C@@H]2CCCC[C@H]2N1Cc1ccccc1	32.4 µM	21.1 µM	26.1 µM	4.63 µM	25.5 µM	25.5 µM	22 µM	15.2 µM	25.4 µM	23.8 µM	–	24.3 µM	33.8 µM
COc1ccc(C2(CC(C)C)CCN(S(=O)(=O)c3ccc(C)cc3)C2)cc1OC (centres undefined)	–	> 100 µM	74.3 µM	> 100 µM	> 100 µM	> 100 µM	> 100 µM	> 100 µM	47.2 µM	> 100 µM	–	> 100 µM	> 100 µM
